# Laboratory results: patent US20160101072A1, “Therapeutic uses of enzyme inhibitors” (Proximagen Limited, priority 2013, published 2016)
# How the values were obtained:
# Format in all cases: in vivo, mouse
# CD53 mRNA = assay: mRNA quantification (RT PCR) of CD53 in muscles of mdx mice
# Source text: (§1) A total of a ninety C57BU10ScSn-Dmdmdx/J male mice, 3 weeks of age (+/-3days), were transferred to the in vivo research laboratory in Bar Harbor, Me. Additional ten […] male mice 3 weeks of age (+/-3 days) were also transferred and served as a wild-type control group. The mice were ear notched for identification and housed in ventilated polysulfone cages with HEPA filtered air at a density of 3-4 mice per cage. The animal room was lit entirely with artificial fluorescent lighting on controlled 12 hour light/dark cycle (6 a.m. to 6 p.m. light). […] The animal room was set for 15 air exchanges per hour. Filtered tap water acidified to a pH of 2.8 to 3.2 was provided ad libitum. […] Prior to study initiation, mice were acclimated for 3 days. Mice were tested for grip strength and in the open field at ages 25 and 26 days, and drug regimen was initiated at age 27 days. Mice were monitored twice weekly for clinical observations and body weights. […] 24 hours after the second open field tests, blood was collected by retro-orbital bleeding, and mice were humanely euthanized by CO2 asphyxiation. One triceps surae was collected fresh and processed for immune cell sorting, one tibialis anterior was preserved in RNALater for RNA extraction, one whole hind limb and the diaphragm were fixed in 2% paraformaldehyde overnight at 4° C. for paraffin embedding and histology stains. Total RNAs were extracted with a modification of the Trizol method, reverse transcribed, and mRNAs of TGFβ, and the following inflammation markers were quantified by the SYBR green method with GAPDH as a normalizer: […]
# CD11b mRNA = assay: mRNA quantification (RT PCR) of CD11b in muscles of mdx mice
# Source text: as §1
# CD11b+ myeloid cells = assay: Cell sorting: recruitment of CD11b+ myeloid cells into muscles of mdx mice; conditions: 4 weeks, mdx mice muscle
# Source text: (§2) In this example, labelled antibodies were used to assess infiltration of inflammatory myeloid and lymphoid cells into muscles of mdx mice following treatment of the mice with different doses of the glucocorticoid prednisolone, and the VAP-1 inhibitors carbidopa and benserazide. CD11b is a transmembrane glycoprotein which is expressed on the surface of granulocytes (including neutrophils and eosinophils), monocytes, NK cells, dendritic cells, tissue macrophages and subsets of T and B cells. Labelled antibody to CD11b was used to assess infiltration of inflammatory myeloid cells into muscles of mdx mice. Labelled antibody to Ly6C was used to assess infiltration of pro- and anti-inflammatory monocytes into muscles of mdx mice. Labelled antibody to CD4 and CD8a antigen was used to assess infiltration of Th cells (CD4^+CD8^-) and double negative (CD4^-CD8^-) T cells into muscles of mdx mice. A total of a ninety C57BU10ScSn-Dmdmdx/J male mice, 3 weeks of age (+/-3days), were transferred to the in vivo research laboratory in Bar Harbor, Me. Additional ten […] male mice 3 weeks of age (+/-3 days) were also transferred and served as a wild-type control group. The mice were ear notched for identification and housed in ventilated polysulfone cages with HEPA filtered air at a density of 3-4 mice per cage. The animal room was lit entirely with artificial fluorescent lighting on controlled 12 hour light/dark cycle (6 a.m. to 6 p.m. light). […] The animal room was set for 15 air exchanges per hour. Filtered tap water acidified to a pH of 2.8 to 3.2 was provided ad libitum. […] Prior to study initiation, mice were acclimated for 3 days. Mice were tested for grip strength and in the open field at ages 25 and 26 days, and drug regimen was initiated at age 27 days. Mice were monitored twice weekly for clinical observations and body weights. […] 24 hours after the second open field tests, blood was collected by retro-orbital bleeding, and mice were humanely euthanized by CO2 asphyxiation. One triceps surae was collected fresh and processed for immune cell sorting, one tibialis anterior was preserved in RNALater for RNA extraction, one whole hind limb and the diaphragm were fixed in 2% paraformaldehyde overnight at 4° C. for paraffin embedding and histology stains. For immune cell sorting, muscle samples were enzymatically and mechanically dissociated following manufacturer instructions (Skeletal Muscle Dissociation KitCatalog no. 130-098-305, Miltenyi Biotec). Cells were stained with the following antibodies: [table] Stained cells were analyzed on a BD LSR II cytometer and counts of different populations were expressed in percentage of the number of live cells counted.
# IL-6 mRNA = assay: mRNA quantification (RT PCR) of IL-6 in muscles of mdx mice; conditions: mdx mice muscle
# Source text: as §1
# [1] = tested on: CD11b+Ly6Clow anti-fibrotic myeloid cells (Ly6C- monocytes); assay: Cell sorting: recruitment of CD11b+Ly6Clow anti-fibrotic myeloid cells into muscles of mdx mice; conditions: mdx mice muscle; for % change compared to vehicle (CD11b+Ly6Clow anti-fibrotic myeloid cells) / % of viable cells (CD11b+Ly6Clow anti-fibrotic myeloid cells): 4 weeks
# Source text: as §2
# TGFβ mRNA = assay: mRNA quantification (RT PCR) of pro-fibrotic growth factor TGFβ in muscles of mdx mice
# Source text: as §1
# [2] = tested on: CD11b+Ly6Chigh profibrotic myeloid cells (Ly6C+ monocytes); assay: Cell sorting: recruitment of CD11b+Ly6Chigh profibrotic myeloid cells into muscles of mdx mice; conditions: mdx mice muscle; for % change compared to vehicle (CD11b+Ly6Chigh profibrotic myeloid cells) / % of viable cells (CD11b+Ly6Chigh profibrotic myeloid cells): 4 weeks
# Source text: as §2
# Mpeg1 mRNA = assay: mRNA quantification (RT PCR) of Mpeg1 in muscles of mdx mice; conditions: mdx mice muscle
# Source text: as §1
# Ly6C1 mRNA = assay: mRNA quantification (RT PCR) of Ly6C1 in muscles of mdx mice; conditions: mdx mice muscle
# Source text: as §1
# Lgals3 mRNA = assay: mRNA quantification (RT PCR) of Lgals3 in muscles of mdx mice
# Source text: as §1
# TNF mRNA = assay: mRNA quantification (RT PCR) of TNF in muscles of mdx mice
# Source text: as §1
# CD48 mRNA = assay: mRNA quantification (RT PCR) of CD48 in muscles of mdx mice
# Source text: as §1
# [3] = 0.2 mg/kg ip once/day, mdx mice muscle, GAPDH as normalizer
# [4] = treatment alone, mdx mouse muscle
smiles,measurement,setting,value
"C[C@]12C=CC(=O)C=C1CC[C@@H]1[C@@H]2[C@@H](O)C[C@@]2(C)[C@H]1CC[C@]2(O)C(=O)CO [Prednisolone, prednisolone]",CD53 mRNA level,CD53 mRNA; [3],1.33
same,effect on the level of CD53 mRNA,CD53 mRNA; [4],not significantly affected
same,CD11b mRNA level,CD11b mRNA; [3],1.42
same,effect on the level of CD11b mRNA,CD11b mRNA; [4],not significantly affected
same,% change compared to vehicle (CD11b+ myeloid cells),CD11b+ myeloid cells; 0.2 mg/kg ip once/day,+14.8%
same,% of viable cells (CD11b+ myeloid cells),CD11b+ myeloid cells; 0.2 mg/kg ip once/day,41.8%
same,% change compared to vehicle (CD11b+ myeloid cells),CD11b+ myeloid cells; 1 mg/kg ip once/day,+20.9%
same,% of viable cells (CD11b+ myeloid cells),CD11b+ myeloid cells; 1 mg/kg ip once/day,44%
same,effect on IL-6 mRNA level,IL-6 mRNA,No effects
same,% change compared to vehicle (CD11b+Ly6Clow anti-fibrotic myeloid cells),[1]; 0.2 mg/kg ip once/day,+0.4%
same,% of viable cells (CD11b+Ly6Clow anti-fibrotic myeloid cells),[1]; 0.2 mg/kg ip once/day,27.3%
same,% change compared to vehicle (CD11b+Ly6Clow anti-fibrotic myeloid cells),[1]; 1 mg/kg ip once/day,+0.7%
same,% of viable cells (CD11b+Ly6Clow anti-fibrotic myeloid cells),[1]; 1 mg/kg ip once/day,27.4%
same,effect on recruitment of anti-fibrotic myeloid cells compared with vehicle,[1]; both doses,no statistically significant effect
same,% change compared to vehicle (TGFβ mRNA),"TGFβ mRNA; 0.2 mg/kg ip once/day, mdx mice muscle",48.8%
same,TGFβ mRNA,TGFβ mRNA; [3],1.80
same,effect on the level of TGFβ mRNA,"TGFβ mRNA; prednisolone alone, muscle of mdx mice",increased
same,% change compared to vehicle (CD11b+Ly6Chigh profibrotic myeloid cells),[2]; 0.2 mg/kg ip once/day,+0.6%
same,% of viable cells (CD11b+Ly6Chigh profibrotic myeloid cells),[2]; 0.2 mg/kg ip once/day,7.37%
same,% change compared to vehicle (CD11b+Ly6Chigh profibrotic myeloid cells),[2]; 1 mg/kg ip once/day,−38.3%
same,% of viable cells (CD11b+Ly6Chigh profibrotic myeloid cells),[2]; 1 mg/kg ip once/day,4.52%
same,effect on recruitment of profibrotic myeloid cells compared with vehicle,[2]; both doses,no statistically significant effect
same,effect on Mpeg1 mRNA level,Mpeg1 mRNA,No effects
same,effect on Ly6C1 mRNA level,Ly6C1 mRNA,No effects
same,Lgals3 mRNA level,Lgals3 mRNA; [3],1.2
same,effect on the level of Lgals3 mRNA,Lgals3 mRNA; [4],no significant effect
same,TNF mRNA level,TNF mRNA; [3],0.92
same,effect on the level of TNF mRNA,TNF mRNA; [4],No significant effect
same,CD48 mRNA level,CD48 mRNA; [3],1
same,effect on the level of CD48 mRNA,CD48 mRNA; [4],no significant effect
